Source: patent publication US20220401514A1, “ANTIMICROBIAL, BACTERIOPHAGE-DERIVED POLYPEPTIDES AND THEIR USE AGAINST GRAM-NEGATIVE AND ACID-FAST BACTERIA” (CONTRAFECT CORPORATION, priority 2019, published 2022)
Read-outs that look alike come from different tables or passages of the source.

Key:
[1] = tested on: M. kansasii Hauduroy ATCC 12478; experiment: 45 hr MIC against M. kansasii (NTM), Mueller Hinton broth; assay type: cell-based, Mycobacterium kansasii
[2] = tested on: Pseudomonas aeruginosa, Escherichia coli, Enterobacter cloacae, Klebsiella pneumoniae, and Acinetobacter baumannii; experiment: MIC against a range of Gram-negative organisms (statements covering several species); assay type: cell-based; details: Tables 40-44 isolates
Procedure, shortened: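 Strains are exposed to peptide dilutions in CAA containing human serum, and the minimal inhibitory concentration is recorded.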

[3] = tested on: carbapenem-resistant bacterial strains; experiment: organism not typed; assay type: cell-based
Excerpt: (§1) Determination of Minimal Inhibitory Concentrations (MIC).

[4] = tested on: P. aeruginosa strain CFS-1292; experiment: MIC in presence of divalent cations (calcium chloride, magnesium sulfate); assay type: cell-based, Pseudomonas aeruginosa
Protocol: Next, Chp peptides were evaluated in the presence of different divalent cations. […]; (2) in the presence of 2 mM calcium chloride alone; (3) in the presence of 1 mM magnesium sulfate alone; and (4) in the presence of both 2 mM calcium chloride and 1 mM magnesium sulfate. […]

[5] = tested on: P. aeruginosa strain CFS-1292; experiment: Checkerboard assay (FICI) with antibiotics, P. aeruginosa; assay type: cell-based, Pseudomonas aeruginosa; set-up: key to FIC Index: FICI = FIC A + FIC B; each FIC = MIC in combination / MIC alone; details: for FICI: CAA + […] human serum; for Chp peptide MIC in checkerboard: P. aeruginosa CFS-1292, CAA + […] human serum
Procedure, shortened: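 Antibiotic diluted 2-fold along one plate axis against Chp peptide; bacteria added at 1×10^5 […] in CAA, optionally with human serum or pulmonary surfactant.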

[6] = tested on: carbapenem-resistant P. aeruginosa clinical isolate CFS-1292; experiment: MIC by modified CLSI broth microdilution against P. aeruginosa CFS-1292 (CAA, CAA + human serum); assay type: cell-based, Pseudomonas aeruginosa
Klebsiella pneumoniae [7] = experiment: microbe, parasite or virus in culture; assay type: cell-based; details: CAA without human serum
[8] = tested on: P. aeruginosa strain CFS-1292; experiment: MIC in presence and absence of Survanta pulmonary surfactant; assay type: cell-based, Pseudomonas aeruginosa
[9] = Stability assessment in 100% CAA; assay type: in vitro ADME; set-up: unit not given beside the values
Protocol: Stability was assessed after incubation in 100% human serum at 37° C. after 10 minutes, 1 hour, and 2 hours.
Stability assessment was further conducted in 100% CAA and rabbit serum using the same methodology discussed above.

[10] = tested on: P. aeruginosa strain CFS-1292; experiment: MIC in presence and absence of NaCl (140 mM); assay type: cell-based, Pseudomonas aeruginosa
Protocol: Certain Chp peptides were evaluated over a range of physiological NaCl levels and pH values, and were further evaluated for activity in the presence of various divalent cations.

[11] = tested on: Mycobacterium tuberculosis strains
Protocol: MIC values for various Chp peptides were determined using the CLSI method for broth microdilution in 96-well microtiter format.
Next, MIC values for various Chp peptides were determined using the CLSI method above for broth microdilution in 96-well microtiter format for two different Mycobacterium tuberculosis strains. The MIC was determined as explained above for the NTM strains.

Klebsiella pneumoniae [12] = assay type: cell-based
Protocol: as §1
Additional MIC testing was performed for several peptides against the ESKAPE pathogens Escherichia coli, Enterobacter cloacae, Klebsiella pneumoniae, and Acinetobacter baumannii, in CAA supplemented with human serum (Table D).

M. smegmatis = experiment: 45 hr MIC against M. smegmatis (NTM), Mueller Hinton broth; assay type: cell-based, Mycobacterium smegmatis
S. maltophilia = experiment: MIC against S. maltophilia isolates; assay type: cell-based, Stenotrophomonas maltophilia
Procedure, shortened: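 MIC in μg/mL for Chp peptides across several S. maltophilia isolates, n denoting the number of isolates tested.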

[13] = K. pneumoniae isolates (n per peptide in table)
[14] = S. maltophilia isolates (n per peptide in table)

## MRLKMARRRYRLPRRRSRRLFSRTALRMHPRNRLRRIMRGGIRF [Chp2]
[1]
  45 hr MIC: 2 µg/mL
[2]
  activity (good = MIC100 of ≤4) against all of P. aeruginosa, K. pneumoniae, A. baumannii, E. cloacae, and E. coli: good activity
[3]; carbapenem-resistant isolate PA19
  MIC: 0.5 µg/mL
[3]; carbapenem-resistant isolate PA20
  MIC: 1 µg/mL
[3]; carbapenem-resistant isolate PA21
  MIC: 1 µg/mL
[3]; carbapenem-resistant isolate PA22
  MIC: 1 µg/mL
[3]; carbapenem-resistant isolate PA23
  MIC: 1 µg/mL
[3]; carbapenem-resistant isolate PA24
  MIC: 1 µg/mL
[3]; carbapenem-resistant isolate WLC-452
  MIC: 0.5 µg/mL
[4]; CAA media + 1 mM MgSO4
  MIC: 0.5 µg/mL
[4]; CAA media + 2 mM CaCl2
  MIC: 0.25 µg/mL
[4]; CAA media + + 1 mM MgSO4
  MIC: 0.25 µg/mL
[4]; CAA media alone
  MIC: 0.5 µg/mL
[5]; Chp peptide combined with Amikacin, P. aeruginosa CFS-1292
  FIC Index: 0.5
[5]; Chp peptide combined with Azithromycin, P. aeruginosa CFS-1292
  FIC Index: 0.375
[5]; Chp peptide combined with Aztreonam, P. aeruginosa CFS-1292
  FIC Index: 0.375
[5]; Chp peptide combined with Ciprofloxacin, P. aeruginosa CFS-1292
  FIC Index: 0.75
[5]; Chp peptide combined with Colistin, P. aeruginosa CFS-1292
  FIC Index: 0.375
[5]; Chp peptide combined with Gentamicin, P. aeruginosa CFS-1292
  FIC Index: 0.5625
[5]; Chp peptide combined with Imipenem, P. aeruginosa CFS-1292
  FIC Index: 0.375
[5]; Chp peptide combined with Levofloxacin, P. aeruginosa CFS-1292
  FIC Index: 0.5
[5]; Chp peptide combined with Meropenem, P. aeruginosa CFS-1292
  FIC Index: 0.375
[5]; Chp peptide combined with Piperacillin, P. aeruginosa CFS-1292
  FIC Index: 1
[5]; Chp peptide combined with Tobramycin, P. aeruginosa CFS-1292
  FIC Index: 0.375
[5]; P. aeruginosa CFS-1292, range of antibiotics
  interaction between the Chp peptide and the antibiotic (FICI values): either synergy (i.e., ≤0.5) or strongly additive (i.e., >0.5-1)
[5]; combination with Amikacin
  FICI: 0.500
[5]; combination with Azithromycin
  FICI: 0.156
[5]; combination with Aztreonam
  FICI: 0.500
[5]; combination with Ciprofloxacin
  FICI: 0.500
[5]; combination with Colistin
  FICI: 0.375
[5]; combination with Fosfomycin
  FICI: 0.250
[5]; combination with Gentamicin
  FICI: 0.281
[5]; combination with Imipenem
  FICI: 0.188
[5]; combination with Piperacillin
  FICI: 0.188
[5]; combination with Rifampicin
  FICI: 0.563
[5]; combination with Tobramycin
  FICI: 0.266
[5]; combined with Amikacin, P. aeruginosa CFS-1292
  Chp peptide FIC: 0.25
[5]; combined with Amikacin
  Chp peptide MIC in checkerboard: 0.25 µg/mL
[5]; combined with Azithromycin, P. aeruginosa CFS-1292
  Chp peptide FIC: 0.125
[5]; combined with Azithromycin
  Chp peptide MIC in checkerboard: 0.0625 µg/mL
[5]; combined with Aztreonam, P. aeruginosa CFS-1292
  Chp peptide FIC: 0.125
[5]; combined with Aztreonam
  Chp peptide MIC in checkerboard: 0.0625 µg/mL
[5]; combined with Ciprofloxacin, P. aeruginosa CFS-1292
  Chp peptide FIC: 0.25
[5]; combined with Ciprofloxacin
  Chp peptide MIC in checkerboard: 0.125 µg/mL
[5]; combined with Colistin, P. aeruginosa CFS-1292
  Chp peptide FIC: 0.125
[5]; combined with Colistin
  Chp peptide MIC in checkerboard: 0.0625 µg/mL
[5]; combined with Gentamicin, P. aeruginosa CFS-1292
  Chp peptide FIC: 0.0625
[5]; combined with Gentamicin
  Chp peptide MIC in checkerboard: 0.03125 µg/mL
[5]; combined with Imipenem, P. aeruginosa CFS-1292
  Chp peptide FIC: 0.25
[5]; combined with Imipenem
  Chp peptide MIC in checkerboard: 0.125 µg/mL
[5]; combined with Levofloxacin, P. aeruginosa CFS-1292
  Chp peptide FIC: 0.25
[5]; combined with Levofloxacin
  Chp peptide MIC in checkerboard: 0.0625 µg/mL
[5]; combined with Meropenem, P. aeruginosa CFS-1292
  Chp peptide FIC: 0.125
[5]; combined with Meropenem
  Chp peptide MIC in checkerboard: 0.0625 µg/mL
[5]; combined with Piperacillin, P. aeruginosa CFS-1292
  Chp peptide FIC: 0.5
[5]; combined with Piperacillin
  Chp peptide MIC in checkerboard: 0.25 µg/mL
[5]; combined with Tobramycin, P. aeruginosa CFS-1292
  Chp peptide FIC: 0.125
[5]; combined with Tobramycin
  Chp peptide MIC in checkerboard: 0.0625 µg/mL
[6]; 100% CAA, 1st run or single value
  MIC (μg/mL) against CFS-1292 in 100% CAA (1st run/2nd run): 0.5 µg/mL
[6]; CAA + […] human serum
  MIC (μg/mL) against CFS-1292 in CAA + […] human serum: 0.5 µg/mL
Klebsiella pneumoniae [7]; Klebsiella pneumoniae (ATCC 10031, MIC control strain), RSC 814
  MIC: 4 µg/mL
Klebsiella pneumoniae [7]; Klebsiella pneumoniae (g2-3 HM35K), RSC 1138
  MIC: 4 µg/mL
Klebsiella pneumoniae [7]; Klebsiella sp. (HM-44; colon, Crohn's disease), RSC 1139
  MIC: 2 µg/mL
Klebsiella pneumoniae [7]; Klebsiella spp. (HM-223; gut of Crohn's disease patient), RSC 1131
  MIC: 4 µg/mL
[8]; CAA media + 0.19 mg/mL Survanta
  MIC: 1 µg/mL
[8]; CAA media + […] Survanta
  MIC: 1 µg/mL
[8]; CAA media alone
  MIC: 0.5 µg/mL
[9]
  MIC (100% CAA): 0.25
[10]; CAA + 140 mM NaCl versus CAA without added NaCl
  Fold change in MIC: 1
[10]; CAA + 140 mM NaCl, P. aeruginosa CFS-1292
  MIC, CAA + 140 mM NaCl: 0.5 µg/mL
[10]; CAA, no added NaCl, P. aeruginosa CFS-1292
  MIC, CAA (no added NaCl): 0.5 µg/mL
[11]; Mycobacterium tuberculosis (Zopf) Lehmann and Neumann ATCC 25177
  MIC: 16 µg/mL
[11]; Mycobacterium tuberculosis (Zopf) Lehmann and Neumann ATCC 35817
  MIC: 16 µg/mL
Klebsiella pneumoniae [12]; [13]
  MIC50: 0.5 µg/mL
  MIC100: 1 µg/mL
  MIC Range: 0.125 to 1 µg/mL
Klebsiella pneumoniae [12]; Klebsiella pneumoniae HM-44, CAA supplemented with human serum
  MIC: 0.125 µg/mL
M. smegmatis; M. smegmatis MC^2 155, Run #1
  45 hr MIC: 4 µg/mL
M. smegmatis; M. smegmatis MC^2 155, Run #2
  45 hr MIC: 4 µg/mL
S. maltophilia; [14]
  MIC50: 0.5 µg/mL
  MIC100: 1 µg/mL
  MIC Range: 0.5 to 1 µg/mL
S. maltophilia; Table 45 isolates
  activity against S. maltophilia: active
